Assay results taken from patent publication US7173004B2, “Macrocyclic isoquinoline peptide inhibitors of hepatitis C virus” (Bristol-Myers Squibb Company, priority 2003, dated 2007).

System: HCV replicon (HCV 1b-377-neo replicon cells, Huh7)
Assay: HCV replicon cell-based FRET assay
Details: Hepatitis C virus, Huh-7
In short: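 Huh7 cells carrying a neo-selectable genotype 1b HCV replicon (~3,000 RNA copies/cell) were seeded at 1.5×10^4 cells/well and treated 4 days at 37 °C (0.5% DMSO final). CC50 was read by alamar Blue (4 h, ex 530/em 580 nm). Lysates with 10 μM EDANS/DABCYL NS3 protease FRET peptide were read kinetically (ex 340/em 490 nm, 25 °C, ~15 min) for % inhibition.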

| SMILES | EC50 |
| --- | --- |
| COc1cccc2c(OC3CC4C(=O)NC5(C(=O)NS(=O)(=O)C6CC6)CC5C=CCCCCCC(NC(=O)OC(C)(C)C)C(=O)N4C3)nccc12 (stereo not drawn) [Compound 133] | < 50 nM |
| COc1ccc2c(OC3CC4C(=O)NC5(C(=O)NS(=O)(=O)C6CC6)CC5C=CCCCSC(C)(C)C(NC(=O)NC5CCCC5)C(=O)N4C3)nccc2c1 (stereo not drawn) [Compound 82] | 50 to 500 nM |
| CC(C)(C)OC(=O)N[C@H]1CNCCC/C=C\[C@@H]2C[C@@]2(C(=O)NS(=O)(=O)C2CC2)NC(=O)[C@@H]2C[C@@H](Oc3nccc4ccccc34)CN2C1=O [Compound 151] | 50 to 500 nM |
| COC(=O)N1CCC/C=C\[C@@H]2C[C@@]2(C(=O)NS(=O)(=O)C2CC2)NC(=O)[C@@H]2C[C@@H](Oc3nccc4ccccc34)CN2C(=O)[C@@H](NC(=O)OC(C)(C)C)C1 [Compound 148] | 50 to 500 nM |
| CC1(COC(=O)NC2CCCCCC=CC3CC3(C(=O)NS(=O)(=O)C3CC3)NC(=O)C3CC(Oc4nccc5ccccc45)CN3C2=O)CC1 (stereo not drawn) [Compound 122] | < 50 nM |
| CC(C)(C)COC(=O)N1CCCC=CC2CC2(C(=O)NS(=O)(=O)C2CC2)NC(=O)C2CC(Oc3nccc4ccccc34)CN2C(=O)C(NC(=O)OC(C)(C)C)C1 (stereo not drawn) [Compound 149] | 50 to 500 nM |
| CC(C)(C)OC(=O)NC1CN(C(=O)C2CC2)CCCC=CC2CC2(C(=O)NS(=O)(=O)C2CC2)NC(=O)C2CC(Oc3nccc4ccccc34)CN2C1=O (stereo not drawn) [Compound 152] | 50 to 500 nM |
| COc1ccc2c(OC3CC4C(=O)NC5(C(=O)NS(=O)(=O)C6CC6)CC5C=CCCCOCC(NC(=O)N5CCCC5)C(=O)N4C3)nc(-c3ccccc3)cc2c1 (stereo not drawn) [Compound 93] | < 50 nM |
| CCC1(S(=O)(=O)NC(=O)C23CC2C=CCCCSCC(NC(=O)OC(C)(C)C)C(=O)N2CC(Oc4nccc5cc(OC)ccc45)CC2C(=O)N3)CC1 (stereo not drawn) [Compound 121] | < 50 nM |
| COc1ccc2c(OC3CC4C(=O)NC5(C(=O)NS(=O)(=O)C6CC6)CC5C=CCCCOCC(NC(=O)N5CCCC5)C(=O)N4C3)nc(-c3ccc(N(C)C)cc3)cc2c1 (stereo not drawn) [Compound 111] | < 50 nM |
| CC(C)(C)NC(=O)N1CCC/C=C\[C@@H]2C[C@@]2(C(=O)NS(=O)(=O)C2CC2)NC(=O)[C@@H]2C[C@@H](Oc3nccc4ccccc34)CN2C(=O)[C@@H](NC(=O)OC(C)(C)C)C1 [Compound 150] | 50 to 500 nM |
| COc1ccc2c(OC3CC4C(=O)NC5(C(=O)NS(=O)(=O)C6(C)CC6)CC5C=CCCCSCC(NC(=O)OC(C)(C)C)C(=O)N4C3)nccc2c1 (stereo not drawn) [Compound 115] | < 50 nM |
| COc1ccc2c(OC3CC4C(=O)NC5(C(=O)NS(=O)(=O)C6CC6)CC5C=CCCCOCC(NC(=O)NC(C)(C)C)C(=O)N4C3)nc(-c3ccc(N(C)C)cc3)cc2c1 (stereo not drawn) [Compound 108] | < 50 nM |
| CC(=O)N1CCC/C=C\[C@@H]2C[C@@]2(C(=O)NS(=O)(=O)C2CC2)NC(=O)[C@@H]2C[C@@H](Oc3nccc4ccccc34)CN2C(=O)[C@@H](NC(=O)OC(C)(C)C)C1 [Compound 146] | 500 to 5000 nM |
| CCSC(=O)NC1CCCCCC=CC2CC2(C(=O)NS(=O)(=O)C2CC2)NC(=O)C2CC(Oc3nccc4ccccc34)CN2C1=O (stereo not drawn) [Compound 118] | < 50 nM |
| COc1ccc2c(O[C@@H]3C[C@H]4C(=O)N[C@]5(C(=O)NS(=O)(=O)C6CC6)C[C@H]5/C=C\CCCOC[C@H](NC(=O)OC(C)(C)C)C(=O)N4C3)nccc2c1 [Compound 85, (1S,4R,6S,14S,18R)-[7-cis-4-Cyclopropanesulfonylaminocarbonyl-18-(6-methoxy-isoquinolin-1-yloxy)-2,15-dioxo-12-oxa-3,16-diaza-tricyclo[14.3.0.0^4,6]nonadec-7-en-14-yl]-carbamic acid, tert-butyl ester] | < 50 nM |
| CC(C)(C)OC(=O)NC1CCCCCC=CC2CC2(C(=O)NS(=O)(=O)C2CC2)NC(=O)C2CC(Oc3nccc4c(Cl)cccc34)CN2C1=O (stereo not drawn) [Compound 130] | < 50 nM |
| COc1ccc2c(OC3CC4C(=O)NC5(C(=O)NS(=O)(=O)C6CC6)CC5C=CCCCSC(C)(C)C(NC(=O)NC(C)(C)C)C(=O)N4C3)nccc2c1 (stereo not drawn) [Compound 81] | 50 to 500 nM |
| COc1ccc2c(OC3CC4C(=O)NC5(C(=O)NS(=O)(=O)C6CC6)CC5C=CCCCOCC(NC(=O)OC5CCCC5)C(=O)N4C3)nccc2c1 (stereo not drawn) [Compound 90] | < 50 nM |
| CC(=O)C(C)(C)OC(=O)NC1CCCCCC=CC2CC2(C(=O)NS(=O)(=O)C2CC2)NC(=O)C2CC(Oc3nccc4ccccc34)CN2C1=O (stereo not drawn) [Compound 123] | 50 to 500 nM |
| COc1ccc2c(OC3CC4C(=O)NC5(C(=O)NS(=O)(=O)C6CC6)CC5C=CCOCCCC(NC(=O)OC(C)C)C(=O)N4C3)nc(-c3ccccc3)cc2c1 (stereo not drawn) [Compound 98] | < 50 nM |
| COc1ccc2c(OC3CC4C(=O)NC5(C(=O)NS(=O)(=O)C6CC6)CC5C=CCOCCCC(NC(=O)N5CCNC5=O)C(=O)N4C3)nc(-c3ccccc3)cc2c1 (stereo not drawn) [Compound 106] | 500 to 5000 nM |
| COc1ccc2c(OC3CC4C(=O)NC5(C(=O)NS(=O)(=O)C6CC6)CC5C=CCCCOCC(NC(=O)OC5CCCC5)C(=O)N4C3)nc(-c3ccccc3)cc2c1 (stereo not drawn) [Compound 94] | < 50 nM |
| COc1ccc2c(OC3CC4C(=O)NC5(C(=O)NS(=O)(=O)C6CC6)CC5C=CCOCCCC(NC(=O)OCC(C)(C)C)C(=O)N4C3)nc(-c3ccccc3)cc2c1 (stereo not drawn) [Compound 103] | < 50 nM |

| SMILES | EC50 |
| --- | --- |
| COc1ccc2c(OC3CC4C(=O)NC5(C(=O)NS(=O)(=O)C6CC6)CC5C=CCCCOCC(NC(=O)OCC(C)(C)C)C(=O)N4C3)nccc2c1 (stereo not drawn) [Compound 88] | < 50 nM |
| O=C(NC1CCCC1)NC1CCCCCC=CC2CC2(C(=O)NS(=O)(=O)C2CC2)NC(=O)C2CC(Oc3nccc4ccccc34)CN2C1=O (stereo not drawn) [Compound 127] | < 50 nM |
| CC(C)NC(=O)NC1CCCCCC=CC2CC2(C(=O)NS(=O)(=O)C2CC2)NC(=O)C2CC(Oc3nccc4ccccc34)CN2C1=O (stereo not drawn) [Compound 128] | < 50 nM |
| COc1ccc2c(OC3CC4C(=O)NC5(C(=O)NS(=O)(=O)C6CC6)CC5C=CCCCOCC(NC(=O)OC(C)C)C(=O)N4C3)nccc2c1 (stereo not drawn) [Compound 89] | < 50 nM |
| CCC(C)(C)OC(=O)NC1CCCCCC=CC2CC2(C(=O)NS(=O)(=O)C2CC2)NC(=O)C2CC(Oc3nccc4ccccc34)CN2C1=O (stereo not drawn) [Compound 125] | < 50 nM |
| COc1ccc2c(OC3CC4C(=O)NC5(C(=O)NS(=O)(=O)C6CC6)CC5C=CCCCSCC(N)C(=O)N4C3)nccc2c1 (stereo not drawn) [Compound 117] | 50 to 500 nM |
| CC(C)(C)CC(C)(C)NC(=O)NC1CCCCCC=CC2CC2(C(=O)NS(=O)(=O)C2CC2)NC(=O)C2CC(Oc3nccc4ccccc34)CN2C1=O (stereo not drawn) [Compound 129] | < 50 nM |
| COc1ccc2c(OC3CC4C(=O)NC5(C(=O)NS(=O)(=O)C6CC6)CC5C=CCCCCCC(NC(=O)OC(C)(C)C)C(=O)N4C3)nccc2c1F (stereo not drawn) [Compound 132] | < 50 nM |
| COc1ccc2c(OC3CC4C(=O)NC5(C(=O)NS(=O)(=O)C6CC6)CC5C=CCOCCCC(NC(=O)NC(C)(C)C)C(=O)N4C3)nc(-c3ccccc3)cc2c1 (stereo not drawn) [Compound 102] | < 50 nM |
| COc1ccc2c(OC3CC4C(=O)NC5(C(=O)NS(=O)(=O)C6CC6)CC5C=CCOCCCC(NC(=O)OC(C)(C)C)C(=O)N4C3)nc(-c3ccc(N(C)C=O)cc3)cc2c1 (stereo not drawn) [Compound 114] | < 50 nM |
| COc1ccc2c(OC3CC4C(=O)NC5(C(=O)NS(=O)(=O)C6CC6)CC5C=CCCCSC(C)(C)C(N)C(=O)N4C3)nccc2c1 (stereo not drawn) [Compound 83] | 5000 to 50000 nM |
| CC(C)(C)OC(=O)N[C@H]1CN(S(=O)(=O)c2ccccc2[N+](=O)[O-])CCC/C=C\[C@@H]2C[C@@]2(C(=O)NS(=O)(=O)C2CC2)NC(=O)[C@@H]2C[C@@H](Oc3nccc4ccccc34)CN2C1=O [Compound 145] | 50 to 500 nM |
| CC(C)(C)NC(=O)N[C@H]1CCCCC/C=C\[C@@H]2C[C@@]2(C(=O)NS(=O)(=O)C2CC2)NC(=O)[C@@H]2C[C@@H](Oc3nccc4ccccc34)CN2C1=O [Compound 126] | < 50 nM |
| CN1CCC/C=C\[C@@H]2C[C@@]2(C(=O)NS(=O)(=O)C2CC2)NC(=O)[C@@H]2C[C@@H](Oc3nccc4ccccc34)CN2C(=O)[C@@H](NC(=O)OC(C)(C)C)C1 [Compound 147] | < 50 nM |
| CC(C)(OC(=O)NC1CCCCCC=CC2CC2(C(=O)NS(=O)(=O)C2CC2)NC(=O)C2CC(Oc3nccc4ccccc34)CN2C1=O)C(Cl)(Cl)Cl (stereo not drawn) [Compound 124] | < 50 nM |
| COc1ccc2c(OC3CC4C(=O)NC5(C(=O)NS(=O)(=O)C6CC6)CC5C=CCCCOCC(NC(=O)NC5CCCC5)C(=O)N4C3)nccc2c1 (stereo not drawn) [Compound 87] | < 50 nM |
| COc1ccc2c(OC3CC4C(=O)NC5(C(=O)NS(=O)(=O)C6CC6)CC5C=CCCCOCC(NC(=O)OC(C)C)C(=O)N4C3)nc(-c3ccccc3)cc2c1 (stereo not drawn) [Compound 96] | < 50 nM |
| CNc1ccc(-c2cc3cc(OC)ccc3c(OC3CC4C(=O)NC5(C(=O)NS(=O)(=O)C6CC6)CC5C=CCOCCCC(NC(=O)OC(C)(C)C)C(=O)N4C3)n2)cc1 (stereo not drawn) [Compound 113] | < 50 nM |
| COc1ccc2c(OC3CC4C(=O)NC5(C(=O)NS(=O)(=O)C6CC6)CC5C=CCOCCCC(NC(=S)NC5CC5)C(=O)N4C3)nc(-c3ccccc3)cc2c1 (stereo not drawn) [Compound 104] | 50 to 500 nM |
| COc1ccc2c(OC3CC4C(=O)NC5(C(=O)NS(=O)(=O)C6CC6)CC5C=CCOCCCC(NC(=O)Nc5ccc(C#N)cc5)C(=O)N4C3)nc(-c3ccccc3)cc2c1 (stereo not drawn) [Compound 105] | 50 to 500 nM |
| COc1ccc2c(OC3CC4C(=O)NC5(C(=O)NS(=O)(=O)C6CC6)CC5C=CCCCCCC(NC(=O)NC(C)(C)C)C(=O)N4C3)nccc2c1 (stereo not drawn) [Compound 135] | < 50 nM |
| COc1ccc2c(OC3CC4C(=O)NC5(C(=O)NS(=O)(=O)C6CC6)CC5C=CCOCCCC(NC(=O)N5CCCC5)C(=O)N4C3)nc(-c3ccccc3)cc2c1 (stereo not drawn) [Compound 100] | < 50 nM |
| COc1ccc2c(OC3CC4C(=O)NC5(C(=O)NS(=O)(=O)C6CC6)CC5C=CCCCCCC(NC(=O)NC5CCCC5)C(=O)N4C3)nccc2c1 (stereo not drawn) [Compound 136] | < 50 nM |
| CC(C)(C)OC(=O)N[C@H]1CN(S(C)(=O)=O)CCC/C=C\[C@@H]2C[C@@]2(C(=O)NS(=O)(=O)C2CC2)NC(=O)[C@@H]2C[C@@H](Oc3nccc4ccccc34)CN2C1=O [Compound 153] | 50 to 500 nM |
